Test results as given in ChEMBL document CHEMBL4330075, “Discovery of Novel Quinoline-Chalcone Derivatives as Potent Antitumor Agents with Microtubule Polymerization Inhibitory Activity” (J Med Chem, 2019).

Assays:
K562 [1] = experiment: Cell cycle arrest in human K562 cells assessed as accumulation of cells at S phase at 20 nM after 48 hrs by propidium iodide staining-based flow cytometric analysis (reference value: 36.27%); assay type: functional
K562 [2] = experiment: Induction of apoptosis in human K562 assessed as late apoptotic cells at 10 nM after 48 hrs by Annexin V-APC/propidium iodide staining-based flow cytometric analysis (reference value: 1.30%); assay type: functional
K562 [3] = experiment: Induction of apoptosis in human K562 assessed as viable cells at 10 nM after 48 hrs by Annexin V-APC/propidium iodide staining-based flow cytometric analysis (reference value: 92.34%); assay type: functional; conditions: K562, 48 h, read-out: Activity
K562 [4] = experiment: Cell cycle arrest in human K562 cells assessed as accumulation of cells at G1 phase at 20 nM after 48 hrs by propidium iodide staining-based flow cytometric analysis (reference value: 47.91%); assay type: functional
[5] = Cytotoxicity against human MDA-MB-231 cells assessed as growth inhibition at 10 nM after 48 hrs; assay type: cell-based; conditions: read-out: GI
[6] = Toxicity in ICR mouse assessed as mouse survival at 640 mg/kg, iv for 14 days relative to control; assay type: organism-based; conditions: in vivo
HCT-8 = experiment: Antiproliferative activity against human HCT8 cells after 72 hrs by MTT assay; assay type: functional, cell-based; conditions: HCT-8, 72 h
K562 [7] = experiment: Induction of apoptosis in human K562 assessed as necrotic cells at 5 nM after 48 hrs by Annexin V-APC/propidium iodide staining-based flow cytometric analysis (reference value: 1.92%); assay type: functional
K562 [8] = experiment: Induction of apoptosis in human K562 assessed as necrotic cells at 10 nM after 48 hrs by Annexin V-APC/propidium iodide staining-based flow cytometric analysis (reference value: 1.92%); assay type: functional
Tubulin = Tubulin (Sus scrofa, UniProt P02554+P02550); experiment: Inhibition of porcine brain tubulin polymerization measured every 2 mins for 60 mins by spectrophotometric analysis
K562 [9] = experiment: Induction of apoptosis in human K562 assessed as late apoptotic cells at 5 nM after 48 hrs by Annexin V-APC/propidium iodide staining-based flow cytometric analysis (reference value: 1.30%); assay type: functional
K562 [10] = experiment: Induction of apoptosis in human K562 assessed as necrotic cells at 20 nM after 48 hrs by Annexin V-APC/propidium iodide staining-based flow cytometric analysis (reference value: 1.92%); assay type: functional
[11] = Toxicity in ICR mouse xenografted with […] cells assessed as effect on spleen at 10 to 20 mg/kg, iv qd for 21 consecutive days by H and E staining-based assay; assay type: organism-based; conditions: in vivo
K562 [12] = experiment: Cell cycle arrest in human K562 cells assessed as accumulation of cells at G2 phase at 20 nM after 48 hrs by propidium iodide staining-based flow cytometric analysis (reference value: 15.82%); assay type: functional
K562 [13] = experiment: Antiproliferative activity against human K562 cells after 72 hrs by MTT assay; assay type: functional, cell-based; conditions: K562, 72 h
K562 [14] = experiment: Induction of mitochondrial membrane potential disruption in human K562 cells assessed as intact mitochondrial membrane potential at 20 nM after 48 hrs by JC-1 staining-based flow cytometric analysis (reference value: 99.12%); assay type: functional
K562 [15] = experiment: Induction of mitochondrial membrane potential disruption in human K562 cells assessed as collapsed mitochondrial membrane potential at 5 nM after 48 hrs by JC-1 staining-based flow cytometric analysis (reference value: 0.63%); assay type: functional
K562 [16] = experiment: Induction of mitochondrial membrane potential disruption in human K562 cells assessed as intact mitochondrial membrane potential at 5 nM after 48 hrs by JC-1 staining-based flow cytometric analysis (reference value: 99.12%); assay type: functional
[17] = Toxicity in ICR mouse xenografted with […] cells assessed as effect on lung at 10 to 20 mg/kg, iv qd for 21 consecutive days by H and E staining-based assay; assay type: organism-based; conditions: in vivo
HepG2 = experiment: cells; conditions: Homo sapiens, HepG2, 72 h
[18] = Toxicity in ICR mouse assessed as mouse survival at 409.6 mg/kg, iv for 14 days relative to control; assay type: organism-based; conditions: in vivo
K562 [19] = experiment: Induction of apoptosis in human K562 assessed as early apoptotic cells at 10 nM after 48 hrs by Annexin V-APC/propidium iodide staining-based flow cytometric analysis (reference value: 4.44%); assay type: functional
K562 [20] = experiment: Cell cycle arrest in human K562 cells assessed as accumulation of cells at G1 phase at 5 nM after 48 hrs by propidium iodide staining-based flow cytometric analysis (reference value: 47.91%); assay type: functional
[21] = Renal toxicity in ICR mouse xenografted with […] cells at 10 to 20 mg/kg, iv qd for 21 consecutive days by H and E staining-based assay; assay type: organism-based; conditions: in vivo
KB = experiment: Antiproliferative activity against human KB cells after 72 hrs by MTT assay; assay type: functional, cell-based
K562 [22] = experiment: Cell cycle arrest in human K562 cells assessed as accumulation of cells at G1 phase at 10 nM after 48 hrs by propidium iodide staining-based flow cytometric analysis (reference value: 47.91%); assay type: functional
K562 [23] = experiment: Induction of apoptosis in human K562 assessed as early apoptotic cells at 20 nM after 48 hrs by Annexin V-APC/propidium iodide staining-based flow cytometric analysis (reference value: 4.44%); assay type: functional
K562 [24] = experiment: Induction of mitochondrial membrane potential disruption in human K562 cells assessed as intact mitochondrial membrane potential at 10 nM after 48 hrs by JC-1 staining-based flow cytometric analysis (reference value: 99.12%); assay type: functional
[25] = Toxicity in ICR mouse assessed as mouse survival at 512 mg/kg, iv for 14 days relative to control; assay type: organism-based; conditions: in vivo
K562 [26] = experiment: Induction of apoptosis in human K562 assessed as viable cells at 5 nM after 48 hrs by Annexin V-APC/propidium iodide staining-based flow cytometric analysis (reference value: 92.34%); assay type: functional; conditions: K562, 48 h, read-out: Activity
K562 [27] = experiment: Induction of apoptosis in human K562 assessed as viable cells at 20 nM after 48 hrs by Annexin V-APC/propidium iodide staining-based flow cytometric analysis (reference value: 92.34%); assay type: functional; conditions: K562, 48 h, read-out: Activity
K562 [28] = experiment: Cell cycle arrest in human K562 cells assessed as accumulation of cells at G2 phase at 10 nM after 48 hrs by propidium iodide staining-based flow cytometric analysis (reference value: 15.82%); assay type: functional
K562 [29] = experiment: Cell cycle arrest in human K562 cells assessed as accumulation of cells at G2 phase at 5 nM after 48 hrs by propidium iodide staining-based flow cytometric analysis (reference value: 15.82%); assay type: functional
K562 [30] = experiment: Cell cycle arrest in human K562 cells assessed as accumulation of cells at S phase at 10 nM after 48 hrs by propidium iodide staining-based flow cytometric analysis (reference value: 36.27%); assay type: functional
[31] = Toxicity in ICR mouse xenografted with […] cells assessed as decrease in body weight at 10 to 20 mg/kg, iv qd administered for 21 days and measured every 2 days; assay type: organism-based; conditions: in vivo
K562 [32] = experiment: Induction of apoptosis in human K562 assessed as late apoptotic cells at 20 nM after 48 hrs by Annexin V-APC/propidium iodide staining-based flow cytometric analysis (reference value: 1.30%); assay type: functional
K562 [33] = experiment: Induction of mitochondrial membrane potential disruption in human K562 cells assessed as collapsed mitochondrial membrane potential at 10 nM after 48 hrs by JC-1 staining-based flow cytometric analysis (reference value: 0.63%); assay type: functional

SMILES: COc1ccc(/C=C(\C)C(=O)c2cc(C)nc3ccccc23)cc1O
- Activity (K562 [1]): 30.35%
- Activity (K562 [2]): 11.4%
- viability at 0.01 µM (K562 [3]): 62.7%
- Activity (K562 [4]): 42.68%
- inhibition at 48 h, 0.01 µM [5]: < 10%
- survival at 336 h [6]: 60%
- IC50 (HCT-8): 15 nM
- Activity (K562 [7]): 2.63%
- Activity (K562 [8]): 2.77%
- IC50 (Tubulin): 1710 nM
- Activity (K562 [9]): 4.34%
- Activity (K562 [10]): 4.86%
- Activity [11]: Non-Toxic
- Activity (K562 [12]): 26.98%
- IC50 (K562 [13]): 9 nM
- Activity (K562 [14]): 46.39%
- Activity (K562 [15]): 15.02%
- Activity (K562 [16]): 84.97%
- Activity [17]: Non-Toxic
- IC50 (HepG2): 15 nM
- survival at 336 h [18]: 90%
- Activity (K562 [19]): 23.15%
- Activity (K562 [20]): 50.41%
- Activity [21]: Non-Toxic
- IC50 (KB): 16 nM
- Activity (K562 [22]): 52.22%
- Activity (K562 [23]): 36.86%
- Activity (K562 [24]): 73.8%
- survival at 336 h [25]: 80%
- viability at 0.005 µM (K562 [26]): 80.2%
- viability at 0.02 µM (K562 [27]): 35%
- Activity (K562 [28]): 22.85%
- Activity (K562 [29]): 18.04%
- Activity (K562 [30]): 24.94%
- Activity [31]: Non-Toxic
- Activity (K562 [32]): 23.28%
- Activity (K562 [33]): 26.2%
